Laboratory results as given in patent publication US20120315658A1, “AMELIORATION OF METABOLIC SYNDROME USING PHYSIOLOGICAL FUNCTIONS OF SPHINGOMYELIN SYNTHASE SMS2, OR SCREENING METHODS FOR AMELIORATING AGENTS” (Shionogi & Co., Ltd., priority 2009, published 2012).

System: ZS2/SMS2 cells
Experiment: Me beta CD sensitivity test with Myriocin, viable cell number by WST-8
Assay type: cell-based, mouse
Settings: for effect of added lipid on cell growth inhibitory effects caused by Myriocin: Myriocin + ceramide (10 microM) or sphingomyelin (15 microM)
Description: 1×10^6 MEF cells are washed, and resuspended in 1 ml of serum-free RPMI 1640 medium, and treated with an appropriate concentration of Me beta CD, and cultured in 5% CO2, 37 degrees Celsius for five minutes. After 2 ml of normal medium containing myriocin are added thereto, and the cells are cultured for additional 12 hours. A reagent for measuring viable cell number containing WST-8 (Nakalai Tesque) may be used to measure survival rate of the cells.
More specifically, ZS2/SMS2 cells prepared in Example 2 are placed in 48-well plate dish at 5000 cells/0.2 ml/well (N=3). For cell culture, 0.3% FCS/OPTIPRO SFM (GIBCO) was used. In this case, Myriocin (Final concentration 5 microM) is added, or alternatively, Myriocin+ceramide (10 microM) or Myriocin+sphingomyelin (15 microM) were added thereto. Me beta CD was added at the final concentration of 2 mM, and further cultured in 5% CO2, 37 degrees Celsius for sixteen hours. A reagent for measuring viable cell number containing WST-8 (DOJINDO) was added at 10 microliter/well and further cultured in 5% CO2, 37 degrees Celsius for one hour (WST assay). The viable cell numbers were counted according to the protocol. Y axis represents a numerical value when the average value is deemed to be 100% amongst the cases in the presence and absence of Myriocin, when Me beta CD is not placed therein.

For ceramide, the “effect of added lipid on cell growth inhibitory effects caused by Myriocin” value (2 mM Me beta CD) was “almost completely inhibited the cell growth inhibitory effects caused by Myriocin”.

For CCCCCCC(=O)CCCCCC/C=C/C[C@@H](O)[C@H](O)[C@@](N)(CO)C(=O)O [Myriocin], the “further reduction of cell growth by addition of Myriocin” value (2 mM Me beta CD, sixteen hours, Myriocin printed as 2 mM) was “about 20%” and the “viable cell number, presence versus absence of Myriocin” value (Me beta CD not placed therein, Myriocin 5 microM) was “not significant difference”.

For sphingomyelin [SM], the “effect of added lipid on cell growth inhibitory effects caused by Myriocin” value (2 mM Me beta CD) was “almost completely inhibited the cell growth inhibitory effects caused by Myriocin”.

In the case of methyl-beta-cyclodextrin [Me beta CD], the “reduction of cell growth by Me beta CD” value (2 mM Me beta CD, sixteen hours, no Myriocin) is reported as “about 50%”.
